Laboratory results published in US4683239A, “3-diphenyl substituted octahydroindolizine analgesic compounds” (McNeilab, Inc., priority 1986, dated 1987).
Structures can show the parent of a compound that is named as a salt.

System: mice
Assay: Mouse Acetylcholine-Bromide-Induced Abdominal Constriction Assay
Assay type: in vivo
Conditions: oral (p.o.), 30 min before i.p. 5.5 mg/kg acetylcholine bromide; for % Inhibition of writhing (% analgesia): @ 30 mg/kg, printed in ED50 column; for ED50: Mus musculus, po, 0.5 h, dose which inhibits writhing by 50%
Protocol: […]., 32: 295-310, 1968, with minor modifications was used to assess analgesic potency of the compounds of formula (I). The test drugs or appropriate vehicle were administered orally (p.o.) and 30 minutes later the animals received an intraperitoneal (i.p.) injection of 5.5 mg/kg acetylcholine bromide (Matheson, Coleman and Bell, East Rutherford, NJ). The mice were then placed in groups of four into glass bell jars and observed for a ten minute observation period for the occurrence of a writhe (defined as a wave of constriction and elongation passing caudally along the abdominal wall, accompanied by a twisting of the trunk and followed by extension of the hind limbs). The percent inhibition of writhing (equated to % analgesia) was calculated as follows: The % Inhibition of writhing, i.e., % analgesia is equal to the difference between the No. of control animals writhing and the No. of drug-treated animals writhing times 100 divided by the No. of control animals writhing. At least 20 animals were used for control and in each of the drug treated groups. Four doses were used to determine each dose response curve and ED50 (that dose which inhibits writhing by 50%). The ED50 values and their 95% fiducial limits were determined by a computer assisted probit analysis.

Structure (SMILES) | % Inhibition of writhing (% analgesia) [%] | ED50 [mg/kg]
CC(=O)Nc1cccc(CCc2ccc([C@@H]3CC[C@@H]4CCCCN43)cc2)c1 (relative stereo) [Example 9, N-[3-[2-[4-(trans-Octahydro-3-indolizinyl)phenyl]ethyl]phenyl]acetamide] | 86 | 
CC(=O)Nc1cccc(/C=C\c2ccc([C@H]3CC[C@H]4CCCCN43)cc2)c1 (relative stereo) [Example 4] |  | 6.9
CC(=O)Nc1ccc(Sc2ccc([C@@H]3CC[C@@H]4CCCCN43)cc2)c(Cl)c1.Cl (relative stereo) [Example 13e] | 46 | 
Cc1ccc(Sc2ccc(C3CCC4CCCCN43)cc2)cc1.Cl (stereo not drawn) [Example 7, 3-[4-[(4-Methylphenyl)thio]phenyl]octahydroindolizine Hydrochloride] |  | 20 to 30
CC(=O)Nc1cccc(C#Cc2ccc([C@@H]3CC[C@@H]4CCCCN43)cc2)c1 (relative stereo) [Example 2, N-[3-[[4-(trans-Octahydro-3-indolizinyl)phenyl]ethynyl]phenyl]acetamide] |  | 17.6
CC(=O)Nc1cccc(Sc2ccc([C@H]3CC[C@H]4CCCCN43)cc2)c1 (relative stereo) [Example 11, N-[3-[[4-trans-Octahydro-3-indolizinyl)phenyl]thio]phenyl]acetamide Hydrochloride Hydrate] | 73 | 
CC(=O)Nc1ccc(Oc2ccc([C@H]3CC[C@H]4CCCCN43)cc2)cc1 (relative stereo) [Example 12f, N-[4-[4-trans-Octahydro-3-indolizinyl)phenoxy]phenylacetamide] |  | ≤ 5
Cl.c1ccc(COc2ccc([C@@H]3CC[C@@H]4CCCCN43)cc2)cc1 (relative stereo) [Example 3b, trans-Octahydro-3-[4-(phenylmethoxy)phenyl]indolizine Hydrochloride] |  | 16.8
Cl.c1ccc(CCc2ccc([C@@H]3CC[C@@H]4CCCCN43)cc2)cc1 (relative stereo) [Example 6, trans-Octahydro-3-[4-(2-phenylethyl)phenyl]indolizine Hydrochloride] |  | 6.9
